# Earlier results, collected in patent US20140220080A1, “IgA SECRETION PROMOTER” (MATSUTANI CHEMICAL INDUSTRY CO., LTD., priority 2013, published 2014).
# Tested on: IgA
# Settings: Patent Literature 1, 2; Non-Patent Literature 1-3
smiles,measurement,value
OC[C@H]1O[C@@H](O[C@H]2[C@H](O)[C@@H](O)[C@@H](O[C@]3(CO)O[C@H](CO)[C@@H](O)[C@@H]3O)O[C@@H]2CO)[C@H](O)[C@@H](O)[C@H]1O [lactosucrose],action of promoting IgA secretion,have an action of promoting IgA secretion
